Test results taken from US7094581B2, “Hyaluronan synthases and methods of making and using same” (The Board of Regents of the University of Oklahoma, priority 1998, dated 2006).
Where two headings read alike, the source gives them in different places.

Columns and labels:
[1] = target: T1, spHAS (Streptococcus pyogenes serotype M6, UniProt Q5X9A9); test: Effect of sulfhydryl reagents on spHAS activity in E. coli membranes; format: biochemical; details: for Inhibition of HAS Activity (% relative to control), spHAS: E. coli membranes with spHAS-H6, 4° C. 1 h, 5 mM NEM, 5 mM IAA, 0.5 mM 5,5′-dithiobis-(2-nitrobenzoic acid), 0.05 mM methylmethanethiosulfonate, 10 mM sodium arsenite
T1 construct: made in house; host or cells: E. coli SURE cells (isolated membranes)
T1 sequence (Q5X9A9 1-419): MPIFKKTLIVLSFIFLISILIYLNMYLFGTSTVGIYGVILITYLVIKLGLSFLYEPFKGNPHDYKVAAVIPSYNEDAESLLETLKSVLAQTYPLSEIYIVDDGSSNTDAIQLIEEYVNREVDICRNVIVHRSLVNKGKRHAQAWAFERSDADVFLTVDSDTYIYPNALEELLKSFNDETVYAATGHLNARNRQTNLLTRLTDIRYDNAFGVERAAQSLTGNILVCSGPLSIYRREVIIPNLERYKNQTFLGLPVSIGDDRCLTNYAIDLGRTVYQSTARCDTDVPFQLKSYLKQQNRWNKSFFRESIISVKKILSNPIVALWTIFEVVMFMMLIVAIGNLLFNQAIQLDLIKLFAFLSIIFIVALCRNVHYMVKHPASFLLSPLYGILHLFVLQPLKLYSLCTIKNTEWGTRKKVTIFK
Experimental: (§1) SeHAS is the smallest HAS protein (417 amino acids) and contains four Cys residues. […] To explore the possible role of cysteines in the function of HAS, the activities of seHAS and spHAS were assayed in the presence of different sulfhydryl reagents (Table II). […] The inhibition of each HAS by NEM was examined in more detail with respect to time of incubation and NEM concentration (FIG. 2).
(§2) E. coli SURE cells transformed with plasmids containing various seHAS mutants were grown in LB medium with vigorous shaking at 32° C. to A600 ˜0.8 and induced with 1 mM isopropyl-β-thiogalactoside for 3 h. Cells were harvested and membranes were prepared as described previously. The kinetic constants for HAS were determined at 37° C. in 100 μl of 50 mM sodium and potassium phosphate, pH 7.0, with 20 mM MgCl2, 1 mM DTE, 240 μM UDP-GIcUA, 0.7 μM UDP-[^14C]GIcUA and 0.6–1.0 mM UDP-GIcNAc. in 100 μl of 25 mM sodium and potassium phosphate, pH 7, containing 50 mM NaCl, 20 mM MgCl2, 1 mM dithiothreitol, 1 mM UDP-GIcUA, 0.68 μM UDP-GIcUA and 1 mM UDP-GIcNAc. Some assays also contained 0.1 mM EDTA and 20% glycerol (v/v). To initiate the enzyme reaction, ˜0.5–40 μg of membrane protein was added and the mixtures were gently shaken in a MicroMixer X-36 (Tiatec) at 30° C. for 1–2 h. Reactions were terminated by the addition of SDS to a final concentration of 2% (w/v). The incorporation of radioactive [^14C]GIcUA was determined by descending paper chromatography and the Km and Vmax values were determined as described by Tlapak-Simmons et al (1999b). Data were analyzed by the methods of Michaelis-Menton or Hill. Protein content was determined by the method of Bradford using bovine serum albumin as the standard. All Cys-mutant or sulfhydryl-treated seHAS samples were assayed in duplicate or triplicate using two or three independent membrane preparations. […] All enzyme assays were performed under conditions that were linear with respect to time and protein concentration.
(§3) Stock solutions (10–100 mM) of NEM, IAA or other sulfhydryl reagents were made in PBS, pH 7.0. Suspensions of membranes containing seHAS or spHAS were incubated with 0–5 mM of the sulfhydryl reagent at 4° C. and the reactions were stopped by adding DTE to a final concentration of 10 mM. The membranes were then assayed for HAS activity as described above.

[2] = system: seHAS; test: Effect of sulfhydryl reagents on seHAS activity in E. coli membranes; format: biochemical, Streptococcus equisimilis; details: E. coli membranes with seHAS-H6, 4° C. 1 h, 5 mM NEM, 5 mM IAA, 0.5 mM 5,5′-dithiobis-(2-nitrobenzoic acid), 0.05 mM methylmethanethiosulfonate, 10 mM sodium arsenite
Experimental: as §1, §2, §3

[3] = system: wild-type seHAS; test: Utilization of UDP-GlcUA and UDP-GlcNAc by wild-type seHAS after NEM or sodium arsenite treatment; format: biochemical, Streptococcus equisimilis; details: membranes 4° C. 1 h with 5 mM NEM or 10 mM sodium arsenite
Experimental: FIG. 3. Effect of NEM or sodium arsenite treatment on the utilization of UDP-GIcUA and UDP-GIcNAc by wild-type seHAS. E. coli membranes containing seHAS protein were incubated at 4° C. for 1 h in PBS containing 5 mM NEM or 10 mM Sodium Arsenite (SodArs), and the control membranes were incubated with PBS alone. Michaelis-Menten constants (Km) were calculated from the activities of seHAS at varying concentrations of UDP-GIcUA or UDP-GIcNAc.
Modification of the protein by NEM could affect any one or several of the six discrete functions that HAS must perform in order to synthesize HA. In order to determine if one of the nucleotide-sugar binding sites was affected by NEM, we examined the UDP-GIcUA and UDP-GIcNAc saturation profiles for treated and untreated seHAS (FIG. 3 and Table III).
E. coli SURE cells transformed with plasmids containing various seHAS mutants were grown in LB medium with vigorous shaking at 32° C. to A600 ˜0.8 and induced with 1 mM isopropyl-β-thiogalactoside for 3 h. Cells were harvested and membranes were prepared as described previously. The kinetic constants for HAS were determined at 37° C. in 100 μl of 50 mM sodium and potassium phosphate, pH 7.0, with 20 mM MgCl2, 1 mM DTE, 240 μM UDP-GIcUA, 0.7 μM UDP-[^14C]GIcUA and 0.6–1.0 mM UDP-GIcNAc. in 100 μl of 25 mM sodium and potassium phosphate, pH 7, containing 50 mM NaCl, 20 mM MgCl2, 1 mM dithiothreitol, 1 mM UDP-GIcUA, 0.68 μM UDP-GIcUA and 1 mM UDP-GIcNAc. Some assays also contained 0.1 mM EDTA and 20% glycerol (v/v). To initiate the enzyme reaction, ˜0.5–40 μg of membrane protein was added and the mixtures were gently shaken in a MicroMixer X-36 (Tiatec) at 30° C. for 1–2 h. Reactions were terminated by the addition of SDS to a final concentration of 2% (w/v). The incorporation of radioactive [^14C]GIcUA was determined by descending paper chromatography and the Km and Vmax values were determined as described by Tlapak-Simmons et al (1999b). Data were analyzed by the methods of Michaelis-Menton or Hill. Protein content was determined by the method of Bradford using bovine serum albumin as the standard. All Cys-mutant or sulfhydryl-treated seHAS samples were assayed in duplicate or triplicate using two or three independent membrane preparations. Results are presented as the mean±standard errors. All enzyme assays were performed under conditions that were linear with respect to time and protein concentration. None of the seHAS variant enzymes were unstable under the conditions employed.

[4] = system: seHAS; format: biochemical, Streptococcus equisimilis; details: for Hill number: seHAS variants, UDP-GlcNAc utilization
Experimental: as §2

Molecule: CSS(C)(=O)=O [Methylmethanethiosulfonate]
- Inhibition of HAS Activity (% relative to control), spHAS [1]: 89 ± 5.5%
- Inhibition of HAS Activity (% relative to control), seHAS [2]: 93 ± 5.4%
- Inhibition of HAS Activity (% relative to control), seHAS ([2]; listed as methylmethanethiosulfonate): > 93%

Molecule: O=C(O)CI [Iodacetic acid]
- Inhibition of HAS Activity (% relative to control), spHAS [1]: 13 ± 5.4%
- Inhibition of HAS Activity (% relative to control), seHAS [2]: 15%

Molecule: O=[As]O [Sodium Arsenite]
- Vmax of treated wild-type seHAS, UDP-GlcNAc [3]: 9.5 ± 1.1 nmol/µg/h
- Vmax of treated wild-type seHAS, UDP-GlcUA [3]: 9.5 ± 1.1 nmol/µg/h
- Km ([3]; read-out: Km for UDP-GlcNAc of treated wild-type seHAS): 112 ± 38 µM
- Km ([3]; read-out: Km for UDP-GlcUA of treated wild-type seHAS): 67 ± 23 µM
- inhibition at 10000 µM ([1]; read-out: Inhibition of HAS Activity (% relative to control), spHAS): 46 ± 5.1%
- Inhibition of HAS Activity (% relative to control), seHAS [2]: 40 ± 4.0%

Molecule: O=C(O)c1cc(SSc2ccc([N+](=O)[O-])c(C(=O)O)c2)ccc1[N+](=O)[O-] [5,5′-dithiobis-(2-nitrobenzoic acid)]
- Inhibition of HAS Activity (% relative to control), spHAS [1]: 52 ± 4.9%
- Inhibition of HAS Activity (% relative to control), seHAS [2]: 52 ± 6.5%

B1: WT: wild-type Streptococcus equisimilis hyaluronan synthase (seHAS-His6), SEQ ID NO:2 (protein, listed as Streptococcus equisimilis)
chain: MRTLKNLITVVAFSIFWVLLIYVNVYLFGAKGSLSIYGFLLIAYLLVKMSLSFFYKPFKGRAGQYKVAAIIPSYNEDAESLLETLKSVQQQTYPLAEIYVVDDGSADETGIKRIEDYVRDTGDLSSNVIVHRSEKNQGKRHAQAWAFERSDADVFLTVDSDTYIYPDALEELLKTFNDPTVFAATGHLNVRNRQTNLLTRLTDIRYDNAFGVERAAQSVTGNILVCSGPLSVYRREVVVPNIDRYINQTFLGIPVSIGDDRCLTNYATDLGKTVYQSTAKCITDVPDKMSTYLKQQNRWNKSFFRESIISVKKIMNNPFVALWTILEVSMFMMLVYSVVDFFVGNVREFDWLRVLAFLVIIFIVALCRNIHYMLKHPLSFLLSPFYGVLHLFVLQPLKLYSLFTIRNADWGTRKKLL
modifications: His6 tag
- Vmax ([4]; seHAS variants in membranes from E. coli SURE cells): 5.60 ± 0.48 nmol/pmol/h
- Km ([4]; seHAS variants in membranes from E. coli SURE cells, read-out: Km for UDPGlcNAc): 74 ± 7 µM
- Km ([4]; seHAS variants in membranes from E. coli SURE cells, read-out: Km for UDPGlcUA): 77 ± 5 µM
- Hill number [4]: 1.1 ± 0.1
- Hill number ([4]; listed as wild-type): 1.0
